Source: US20210353668A1, “CALCIUM COMPOSITION” (PerformaNat GmbH, priority 2018, published 2021)

Test system: Ruminal epithelium of sheep
Assay: Measurement of Ca-flux (45Ca2+ net flux) across ruminal epithelium in the Ussing chamber
Assay type: cell-based
Experimental: Measurement of Ca-Flux Across Ruminal Epithelium in the Ussing-Chamber
Ruminal epithelium of sheep was mounted in a conventional Ussing chamber. Chambers contained 16 ml of serosal or mucosal buffer, which was circulated and gassed by a gas lift system (5% CO2/95% O2).
In this experiment 24 chambers were divided into three groups. Group 1 (mucosal buffer containing 1.8 mM CaCl2), group 2 (mucosal buffer containing 3.6 mM CaCl2) and group 3 (containing 7.2 mM CaCl2). The same buffer was present on the serosal side of all chambers (Table 1). Each group (1,2,3) was again divided into two parts. One was defined as control group one as EO group. It is noted that the amounts correspond to a normal Ca^2+ concentration in the rumen (1.8 mM) (referred to as Comparative Example A) and to treated rumen corresponding to the administration of about 13 g Ca (3.6 mM) and 26 g Ca (7.2 mM) (referred to as Examples 1 and 2, respectively).
After an equilibrating time of around 30 minutes ^45Ca^2+ (40 kBq per 16 ml chamber) was added to either to the mucosal or serosal “hot” side.
Depending on the group 16 μl ethanol (Control) or 16 μl essential oil (EO) were added to the mucosal side of the chamber. The essential oil used is menthol, and the actual menthol concentration obtained is 50 μM.
After 70 minutes the first sample from the “cold” side was taken, followed by five samples of each 900 μl which were taken in an interval of 30 minutes. The sample volume was replaced by an aliquot of the respective buffer. Radioactivity was measured using a β-counter (LKB Wallace-Perkin-Elmer, Überlingen, Germany).
Epithelia were paired after sorting for transepithelial conductance (Gt) and the net calcium flux was calculated from the difference between mucosal to serosal flux and serosal to mucosal flux for paired epithelia.
The net transport of calcium across the isolated ruminal epithelium was calculated by subtracting the calcium secretion (serosal to mucosal transport) from the calcium absorption (mucosal to serosal transport) reflecting the real absorption of calcium from the rumen to the blood side. For statistical analysis linear mixed effect models for repeated measures were calculated using mucosal calcium concentration and the addition of essential oils as fixed effects and animal as random effect (SAS System, method MIXED PROC). The effects of calcium concentration and the addition of essential oils was calculated as well as their interaction. Furthermore, the effect of sampling time was included to the model. Effects were evaluated for the repeated measures of the consecutive flux periods.

## CC1CCC(C(C)C)C(O)C1 (stereo not shown) [menthol]
All three Ca concentrations (1.8, 3.6, 7.2 mM), menthol present
  calcium flux compared to the control (in words): increased
Mucosal Ca 1.8 mM
  increase of calcium absorption by addition of EO: 6.06 nmol/cm^2/h
Mucosal Ca 3.6 mM
  increase of calcium absorption by addition of EO: 2.52 nmol/cm^2/h
Mucosal Ca 7.2 mM
  increase of calcium absorption by addition of EO: 8.22 nmol/cm^2/h
